Results as given in patent publication US20090136461A1, “Neuronal differentiation method of adult stem cells using small molecules” (priority 2007, published 2009).

Columns and labels:
Experiment in all cases: Neuronal differentiation, inverted microscope morphology
Format in all cases: cell-based, Fischer rats
[1] = system: adipose-derived stem cells; settings: 10 μM small molecules; FIG. 3C, FIG. 4
Method: (§1) Bone marrow-derived mesenchymal stem cells subcultured for 5 generations were distributed on a well plate. One day later, the cells were treated with DMEM containing 20% FBS and 10 ng/mL b-FGF for a day, so that the cells could proliferate sufficiently. In order to induce differentiation into nerve cells, the cells were treated with differentiation medium containing the small molecules listed in Table 1. The small molecules were used after being dissolved in DMSO (Sigma, USA). The concentration of DMSO was less than 2% of the entire culture medium, and was diluted so that the small molecules were included with a concentration in the range from 1 μM to 100 μM. As negative control, DMEM containing 10% FBS and 1% penicillin-streptomycin was used. And, retinoic acid as positive control, which is a well-known inducer of differentiation into nerve cells, was used after being diluted to 2 μM in DMEM. Differentiation of muscle-derived stem cells and adipose-derived stem cells into nerve cells was induced similarly as in the bone marrow-derived stem cells.

[2] = system: bone marrow-derived mesenchymal stem cells; settings: 10 μM small molecules; FIG. 3A
Method: as §1

[3] = system: muscle-derived stem cells; settings: 10 μM small molecules; FIG. 3B
Method: as §1

Row | SMILES | differentiation (microscopic images) [1] | differentiation (inverted microscopic images) [2] | differentiation (inverted microscopic images) [3]
1 | O=C(NO)c1ccc(/C=C(/CNc2ccc(-c3ccccc3)cc2)COc2cccc3ccccc23)cc1 [BHA-3] | differentiated |  | 
2 | O=C(Nc1ccccc1)/C(=C/c1ccc(C(=O)NO)cc1)COc1ccc2oc3ccccc3c2c1 [BHA-2] | differentiated |  | 
3 | CC(CCCCC(C)(C)C(=O)NO)C(=O)Nc1ccccc1 (centres unmarked) [AAHA-2] | differentiated |  | 
4 | O=C(CCc1ccc(C(=O)NO)cc1)Nc1cccc(OCc2ccccc2)c1 [BHA-1] | differentiated | differentiated | differentiated
5 | COc1ccc(NC(=O)/C(=C/c2ccc(C(=O)NO)cc2)COc2cccc3ccccc23)cn1 [BHA-4] | differentiated |  | 
6 | O=C(NO)c1ccc2c(c1)NC(CCCc1ccccc1)C(=O)N2 (centres unmarked) [QHA-2] | differentiated | differentiated | differentiated
7 | C/C(=C/CCCCC(=O)NO)C(=O)NC1Cc2ccccc2C1 [AAHA-1] | differentiated |  | 
